Source: patent US10640498B2, “Compounds” (MISSION THERAPEUTICS LIMITED, priority 2016, dated 2020)

What follows are molecules tested against USP30 (Homo sapiens (Human), UniProt Q70CQ3) (assay: USP30 biochemical IC50 assay (fluorescence polarisation)). Details: enzyme and compound incubated 30 min at room temp; TAMRA labelled peptide-ubiquitin substrate 50 nM; read after 2 hr incubation; read-out: IC50 range.
Description: USP30 Biochemical IC50 Assay
Dilution plates were prepared at 21 times the final concentration ([…] for a final concentration of 100 μM) in 50% DMSO in a 96-well polypropylene V-bottom plate (Greiner #651201). A typical 8-point dilution series to be 100, 30, 10, 3, 1, 0.3, 0.1, […].
Reactions were performed in duplicate in black 384 well plates (small volume, Greiner 784076) in a final reaction volume of 21 μl. Either 1 μl of 50% DMSO or diluted compound was added to the plate. USP30 was diluted in reaction buffer (40 mM Tris, pH 7.5, 0.005% Tween 20, 0.5 mg/ml BSA, 5 mM beta-mercaptoethanol) to the equivalent of 0.05 µl/well and 10 μl of diluted USP30 was added to the compound. Enzyme and compound were incubated for 30 min at room temp. Reactions were initiated by the addition of 50 nM of TAMRA labelled peptide linked to ubiquitin via an iso-peptide bond as fluorescence polarisation substrate. Reactions were read immediately after addition of substrate and following a 2 hr incubation at room temperature. Readings were performed on a Pherastar Plus (BMG Labtech). λ Excitation 540 nm; λ Emission 590 nm.

USP30, sequence (Q70CQ3 57-517): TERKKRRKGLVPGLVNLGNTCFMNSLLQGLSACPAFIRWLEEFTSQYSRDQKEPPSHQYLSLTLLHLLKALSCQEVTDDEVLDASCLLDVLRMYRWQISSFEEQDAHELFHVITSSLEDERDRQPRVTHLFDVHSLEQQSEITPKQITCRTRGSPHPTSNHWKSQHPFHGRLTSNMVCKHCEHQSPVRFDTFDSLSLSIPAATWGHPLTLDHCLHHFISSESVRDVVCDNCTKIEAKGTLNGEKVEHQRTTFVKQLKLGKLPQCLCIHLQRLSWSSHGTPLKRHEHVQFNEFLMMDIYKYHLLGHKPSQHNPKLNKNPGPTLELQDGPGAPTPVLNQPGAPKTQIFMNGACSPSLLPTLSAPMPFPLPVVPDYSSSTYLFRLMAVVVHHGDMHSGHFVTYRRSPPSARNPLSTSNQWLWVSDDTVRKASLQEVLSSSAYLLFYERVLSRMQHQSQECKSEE

C[C@H]1CN(C#N)C[C@@H]1C(=O)N1CCc2cc(-c3ccccc3)cnc21 (racemic) [Example 52, Trans-3-methyl-4-(5-phenyl-2,3-dihydro-1H-pyrrolo[2,3-b]pyridine-1-carbonyl)-pyrrolidine-1-carbonitrile] and C[C@@H]1CN(C#N)C[C@H]1C(=O)N1CCc2cc(-c3ccccc3)ccc21 [Example 19, (3S,4S)-3-Methyl-4-(5-phenylindoline-1-carbonyl)pyrrolidine-1-carbonitrile] fall in the same range of IC50: 0.1 to 1 µM for the first, 0.1 to 1 µM for the second.

N#CN1CCC(F)(C(=O)N2CCc3cc(-c4cccnc4)ccc32)C1 (racemic) [Example 57, 3-Fluoro-3-(5-(pyridin-3-yl)indoline-1-carbonyl)pyrrolidine-1-carbonitrile] and N#CN1CCC(F)(C(=O)N2CCc3cc(-c4ccccc4)ccc32)C1 (stereo not drawn) [Example 14, 3-Fluoro-3-(5-phenylindoline-1-carbonyl)pyrrolidine-1-carbonitrile] fall in the same range of IC50: 0.1 to 1 µM for the first, 0.1 to 1 µM for the second.

First: C[C@@H]1CN(C#N)C[C@H]1C(=O)N1CCc2cc(-c3ccccc3Cl)ccc21 (relative stereo) [Example 13, (trans)-3-(5-(2-Chlorophenyl)indoline-1-carbonyl)-4-methylpyrrolidine-1-carbonitrile]
Second: C[C@H]1CN(C#N)C[C@@H]1C(=O)N1CCc2cc(-c3ccccc3)ccc21 [Example 20, (3R,4R)-3-Methyl-4-(5-phenylindoline-1-carbonyl)pyrrolidine-1-carbonitrile]
The IC50 of the first is lower: 0.1 to 1 µM for the first, 1 to 10 µM for the second. The first is the more potent here.

CN(C(=O)[C@H]1CN(C#N)C[C@@H]1CO)c1ncc(-c2ccccc2)s1 (relative stereo) [Example 34, (trans)-1-Cyano-4-(hydroxymethyl)-N-methyl-N-(5-phenylthiazol-2-yl)pyrrolidine-3-carboxamide] and CN(C(=O)[C@H]1CCN(C#N)C1)c1ncc(-c2ccccc2)s1 [Example 3, (S)-1-Cyano-N-methyl-N-(5-phenylthiazol-2-yl)pyrrolidine-3-carboxamide] fall in the same range of IC50: 0.1 to 1 µM for the first, 0.1 to 1 µM for the second.

N#CN1C[C@H]2CN(c3ncc(-c4ccccc4)s3)C(=O)[C@H]2C1 (relative stereo) [Example 48, (cis)-4-Oxo-5-(5-phenylthiazol-2-yl)hexahydropyrrolo[3,4-c]pyrrole-2(1H)-carbonitrile] and CCN(C(=O)C1CCN(C#N)C1)c1ncc(-c2ccccc2)s1 (stereo not drawn) [Example 2, 1-cyano-N-ethyl-N-(5-phenylthiazol-2-yl)pyrrolidine-3-carboxamide] fall in the same range of IC50: 1 to 10 µM for the first, 1 to 10 µM for the second.

CN(C(=O)C1CCN(C#N)C1)c1ccc(-c2ccccc2)cn1 (stereo in doubt) [Example 31, (S)-1-Cyano-N-methyl-N-(5-phenylpyridin-2-yl)pyrrolidine-3-carboxamide] and CN(C(=O)[C@H]1CCN(C#N)C1)c1cc(-c2ccccc2)ccn1 [Example 4, (S)-1-Cyano-N-methyl-N-(4-phenylpyridin-2-yl)pyrrolidine-3-carboxamide] fall in the same range of IC50: 1 to 10 µM for the first, 1 to 10 µM for the second.

CCN(C(=O)C1CCN(C#N)C1)c1nc(-c2ccccc2)cs1 (stereo not drawn) [Example 1, 1-Cyano-N-ethyl-N-(4-phenylthiazol-2-yl)pyrrolidine-3-carboxamide] and CC(C)N(C(=O)C1CCN(C#N)C1)c1nc(-c2ccccc2)cs1 (stereo not drawn) [Example 7, 1-Cyano-N-isopropyl-N-(4-phenylthiazol-2-yl)pyrrolidine-3-carboxamide] fall in the same range of IC50: 1 to 10 µM for the first, 1 to 10 µM for the second.

CN(C(=O)[C@H]1CCN(C#N)C1)c1cccc(-c2ccccc2)n1 [Example 5, (S)-1-Cyano-N-methyl-N-(6-phenylpyridin-2-yl)pyrrolidine-3-carboxamide] and CN(C(=O)[C@@H]1CCN(C#N)C1)c1cc(-c2ccccc2)cnn1 [Example 32, (R)-1-Cyano-N-methyl-N-(5-phenylpyridazin-3-yl)pyrrolidine-3-carboxamide] fall in the same range of IC50: 1 to 10 µM for the first, 1 to 10 µM for the second.

CN(C(=O)C1(F)CCN(C#N)C1)c1ncc(-c2ccccc2)s1 (stereo not drawn) [Example 8, 1-Cyano-3-fluoro-N-methyl-N-(5-phenylthiazol-2-yl)pyrrolidine-3-carboxamide] and CN(C(=O)C1(F)CCN(C#N)C1)c1cc(-c2ccccc2)on1 (stereo not drawn) [Example 33, 1-Cyano-3-fluoro-N-methyl-N-(5-phenylisoxazol-3-yl)pyrrolidine-3-carboxamide] fall in the same range of IC50: 0.1 to 1 µM for the first, 0.1 to 1 µM for the second.

CN(C(=O)C1(F)CCN(C#N)C1)c1nc2ccccc2s1 (stereo not drawn) [Example 9, N-(Benzo[d]thiazol-2-yl)-1-cyano-3-fluoro-N-methylpyrrolidine-3-carboxamide] and N#CN1CCC(F)(C(=O)N2CCc3ccc(-c4ccccc4)nc32)C1 (stereo not drawn) [Example 16, 3-Fluoro-3-(6-phenyl-2,3-dihydro-1-H-pyrrolo[2,3-b]pyridine-1-carbonyl)pyrrolidine-1-carbonitrile] fall in the same range of IC50: 0.1 to 1 µM for the first, 0.1 to 1 µM for the second.

Compared with N#CN1CC[C@H](C(=O)N2CCc3c(-c4ccccc4)cccc32)C1 [Example 10, (S)-3-(4-Phenylindoline-1-carbonyl)pyrrolidine-1-carbonitrile], N#CN1CC[C@@H](C(=O)N2CCOc3c(-c4ccccc4)cccc32)C1 [Example 26, (R)-3-(8-Phenyl-3,4-dihydro-2H-benzo[b][1,4]oxazine-4-carbonyl)pyrrolidine-1-carbonitrile] is higher in IC50: 0.1 to 1 µM for the first, 1 to 10 µM for the second.

N#CN1CC[C@@H](C(=O)N2CCc3ccc(-c4ccccc4)cc32)C1 [Example 11, (R)-3-(6-Phenylindoline-1-carbonyl)pyrrolidine-1-carbonitrile] and N#CN1CC[C@@H](C(=O)N2CCc3cc(-c4ccccc4)ccc32)C1 [Example 17, (R)-3-(5-Phenylindoline-1-carbonyl)pyrrolidine-1-carbonitrile] fall in the same range of IC50: 1 to 10 µM for the first, 1 to 10 µM for the second.

N#CN1CC[C@H](C(=O)N2CCc3cc(-c4cccc(Cl)c4)ccc32)C1 [Example 12, (S)-3-(5-(3-Chlorophenyl)indoline-1-carbonyl)pyrrolidine-1-carbonitrile] and N#CN1CC[C@H](C(=O)N2CCc3cc(-c4ccccc4)ccc32)C1 [Example 18, (S)-3-(5-Phenylindoline-1-carbonyl)pyrrolidine-1-carbonitrile] fall in the same range of IC50: 0.1 to 1 µM for the first, 0.1 to 1 µM for the second.

N#CN1CCC(F)(C(=O)N2CCc3ccc(-c4ccccc4)cc32)C1 (stereo not drawn) [Example 15, 3-Fluoro-3-(6-phenylindoline-1-carbonyl)pyrrolidine-1-carbonitrile] and N#CN1CCC(F)(C(=O)N2CCc3cc(-c4ccccc4)cnc32)C1 (stereo not drawn) [Example 22, 3-Fluoro-3-(5-phenyl-2,3-dihydro-1H-pyrrolo[2,3-b]pyridine-1-carbonyl)pyrrolidine-1-carbonitrile] fall in the same range of IC50: 0.1 to 1 µM for the first, 0.1 to 1 µM for the second.

First: N#CN1CC[C@H](C(=O)N2CCc3cc(-c4ccccc4)cnc32)C1 [Example 21, (S)-3-(5-Phenyl-2,3-dihydro-1H-pyrrolo[2,3-b]pyridine-1-carbonyl)pyrrolidine-1-carbonitrile]
Second: N#CN1CC[C@H](C(=O)N2CCc3c(-c4ccccc4)ccnc32)C1 [Example 27, (S)-3-(4-Phenyl-2,3-dihydro-1H-pyrrolo[2,3-b]pyridine-1-carbonyl)pyrrolidine-1-carbonitrile]
The IC50 of the first is higher: 1 to 10 µM for the first, 0.1 to 1 µM for the second. The second is the more potent here.

N#CN1CC[C@H](C(=O)N2CCCc3cc(-c4ccccc4)ccc32)C1 [Example 23, (S)-3-(6-Phenyl-1,2,3,4-tetrahydroquinoline-1-carbonyl)pyrrolidine-1-carbonitrile] and N#CN1CC[C@@H](C(=O)N2CCOc3cc(-c4ccccc4)ccc32)C1 [Example 24, (R)-3-(7-Phenyl-3,4-dihydro-2H-benzo[b][1,4]oxazine-4-carbonyl)pyrrolidine-1-carbonitrile] fall in the same range of IC50: 0.1 to 1 µM for the first, 0.1 to 1 µM for the second.

First: N#CN1CC[C@@H](C(=O)N2CCOc3ccc(-c4ccccc4)cc32)C1 [Example 25, (R)-3-(6-Phenyl-3,4-dihydro-2H-benzo[b][1,4]oxazine-4-carbonyl)pyrrolidine-1-carbonitrile]
Second: N#CN1CC[C@@H](C(=O)N2CCOc3cc(-n4cccn4)ccc32)C1 [Example 30, (R)-3-(7-(1H-Pyrazol-1-yl)-3,4-dihydro-2H-benzo[b][1,4]oxazine-4-carbonyl)-pyrrolidine-1-carbonitrile]
The IC50 of the first is lower: 0.1 to 1 µM for the first, 1 to 10 µM for the second. The first is the more potent here.

N#CN1CC[C@H](C(=O)N2CCc3c(-c4cccc(Cl)c4)ccnc32)C1 [Example 28, (S)-3-(4-(3-Chlorophenyl)-2,3-dihydro-1H-pyrrolo[2,3-b]pyridine-1-carbonyl)pyrrolidine-1-carbonitrile] and Cn1cc(-c2cc3c(cc2C#N)N(C(=O)[C@H]2CCN(C#N)C2)CC3)cn1 [Example 29, (S)-1-(1-Cyanopyrrolidine-3-carbonyl)-5-(1-methyl-1H-pyrazol-4-yl)indoline-6-carbonitrile] fall in the same range of IC50: 1 to 10 µM for the first, 1 to 10 µM for the second.

N#CN1CCC(F)(C(=O)N2CCc3cc(-c4ccnn4Cc4ccccc4)ccc32)C1 (stereo not drawn) [Example 35, 3-(5-(1-Benzyl-1H-pyrazol-5-yl)indoline-1-carbonyl)-3-fluoropyrrolidine-1-carbonitrile] and Cn1nccc1-c1ccc2c(c1)CCN2C(=O)C1(F)CCN(C#N)C1 (stereo not drawn) [Example 36, 3-Fluoro-3-(5-(1-methyl-1H-pyrazol-5-yl)indoline-1-carbonyl)pyrrolidine-1-carbonitrile] fall in the same range of IC50: 1 to 10 µM for the first, 1 to 10 µM for the second.

CN1CCN(c2ccc(-c3ccc4c(c3)CCN4C(=O)C3(F)CCN(C#N)C3)cc2)CC1 (stereo not drawn) [Example 37, 3-Fluoro-3-(5-(4-(4-methylpiperazin-1-yl)phenyl)indoline-1-carbonyl)pyrrolidine-1-carbonitrile] was tested, and the IC50 was 0.1 to 1 µM.
